Measurements as given in patent US20260242388A1, “NBD1 MODULATORS AND METHODS OF USING THE SAME” (Sionna Therapeutics Inc., priority 2023, published 2026).

Each compound was assayed against T1, CFTR (Homo sapiens, UniProt P13569, DEL508-508) (assay: TECC24 recording of CFTR-mediated transepithelial chloride transport in ΔF508 homozygous CF-HBE cells). Settings: 48 hours incubation, AUC of forskolin-stimulated IEQ, test agent AUC divided by vehicle (DMSO) AUC, primary CF-HBE cells.
T1 construct: Primary human bronchial epithelial cells from a ΔF508 homozygous CF donor; host or cells: primary CF-HBE cells, ΔF508 homozygous donor
Type: cell-based
Procedure: Example 24. TECC24 AUC Fold Over DMSO @10 μM
The effects of a test agent on CFTR-mediated transepithelial chloride transport was measured using TECC24 recording analysis. Test agents were solubilized in DMSO. Solubilized test agents were mixed with incubation medium containing DMEM/F12, Ultroser G (2%; Crescent Chemical, catalog #67042), Hyclone Fetal Clone 11 (2%; GE Healthcare, catalog #SH30066.02), bovine brain extract (0.25%; Lonza, catalog #CC-4098), insulin (2.5 μg/mL), IL-13 (10 ng/mL), hydrocortisone (20 nM), transferrin ([…]), triiodothyronine (500 nM), ethanolamine (250 nM), epinephrine (1.5 μM), phosphoethanolamine (250 nM), and retinoic acid (10 nM). Primary human bronchial epithelial cells from a ΔF508 homozygous CF donor (CF-HBE cells; from University of North Carolina Cystic Fibrosis Tissue Procurement Center), grown on Transwell HTS 24-well cell culture inserts (Costar, catalog #3378), were exposed to test agents or controls dissolved in incubation medium. The CF-HBE cells were cultured at 36.5° C. for 48 hours before TECC24 recordings were performed in the presence or absence of test agent, a positive control or vehicle (DMSO).
Following incubation, the transwell cell culture inserts containing the test agent or control-treated CF-HBE cells were loaded onto a TECC24 apparatus (TECC v7 or MTECC v2; EP Design) to record the transepithelial voltage (VT) and resistance (TEER) using 4 AgCl electrodes per well configured in current-clamp mode. The apical and basolateral bath solutions both contained (in mM) 140 NaCl, 5 KCl, 2 CaCl2), 1 MgCl2, 10 Hepes, and 10 glucose (adjusted to pH 7.4 with NaOH). To inhibit basal Na+ absorption, the ENaC inhibitor benzamil (10 μM) was added to the bath. Then, the adenylate cyclase activator, forskolin (10 μM), was added to the bath to activate CFTR. The forskolin-stimulated Cl− transport was halted by addition of CFTR inhibitor-172 (20 μM) to the bath at the end of the experiment to confirm specificity. VT and TEER recordings were digitally acquired at routine intervals using TECC or MTECC software (EP Design). VT and TEER were transformed into equivalent transepithelial Cl− current (IEQ), and the Area Under the Curve (AUC) of the IEQ time course between forskolin and CFTR inhibitor-172 addition is generated using Excel (Microsoft). Efficacy is expressed as the ratio of the test agent AUC divided by vehicle AUC. EC50s based on AUC are generated using the non-linear regression log(agonist) vs. response function in Prism software (Graphpad) with HillSlope fixed=1.
If a test agent increased the AUC of the forskolin-stimulated IEQ relative to vehicle in CF-HBE cells, and this increase was inhibited by CFTR inhibitor-172, then the test agent was considered a CFTR corrector.

T1 sequence (P13569 with tags, fused parts or gaps DEL508-508): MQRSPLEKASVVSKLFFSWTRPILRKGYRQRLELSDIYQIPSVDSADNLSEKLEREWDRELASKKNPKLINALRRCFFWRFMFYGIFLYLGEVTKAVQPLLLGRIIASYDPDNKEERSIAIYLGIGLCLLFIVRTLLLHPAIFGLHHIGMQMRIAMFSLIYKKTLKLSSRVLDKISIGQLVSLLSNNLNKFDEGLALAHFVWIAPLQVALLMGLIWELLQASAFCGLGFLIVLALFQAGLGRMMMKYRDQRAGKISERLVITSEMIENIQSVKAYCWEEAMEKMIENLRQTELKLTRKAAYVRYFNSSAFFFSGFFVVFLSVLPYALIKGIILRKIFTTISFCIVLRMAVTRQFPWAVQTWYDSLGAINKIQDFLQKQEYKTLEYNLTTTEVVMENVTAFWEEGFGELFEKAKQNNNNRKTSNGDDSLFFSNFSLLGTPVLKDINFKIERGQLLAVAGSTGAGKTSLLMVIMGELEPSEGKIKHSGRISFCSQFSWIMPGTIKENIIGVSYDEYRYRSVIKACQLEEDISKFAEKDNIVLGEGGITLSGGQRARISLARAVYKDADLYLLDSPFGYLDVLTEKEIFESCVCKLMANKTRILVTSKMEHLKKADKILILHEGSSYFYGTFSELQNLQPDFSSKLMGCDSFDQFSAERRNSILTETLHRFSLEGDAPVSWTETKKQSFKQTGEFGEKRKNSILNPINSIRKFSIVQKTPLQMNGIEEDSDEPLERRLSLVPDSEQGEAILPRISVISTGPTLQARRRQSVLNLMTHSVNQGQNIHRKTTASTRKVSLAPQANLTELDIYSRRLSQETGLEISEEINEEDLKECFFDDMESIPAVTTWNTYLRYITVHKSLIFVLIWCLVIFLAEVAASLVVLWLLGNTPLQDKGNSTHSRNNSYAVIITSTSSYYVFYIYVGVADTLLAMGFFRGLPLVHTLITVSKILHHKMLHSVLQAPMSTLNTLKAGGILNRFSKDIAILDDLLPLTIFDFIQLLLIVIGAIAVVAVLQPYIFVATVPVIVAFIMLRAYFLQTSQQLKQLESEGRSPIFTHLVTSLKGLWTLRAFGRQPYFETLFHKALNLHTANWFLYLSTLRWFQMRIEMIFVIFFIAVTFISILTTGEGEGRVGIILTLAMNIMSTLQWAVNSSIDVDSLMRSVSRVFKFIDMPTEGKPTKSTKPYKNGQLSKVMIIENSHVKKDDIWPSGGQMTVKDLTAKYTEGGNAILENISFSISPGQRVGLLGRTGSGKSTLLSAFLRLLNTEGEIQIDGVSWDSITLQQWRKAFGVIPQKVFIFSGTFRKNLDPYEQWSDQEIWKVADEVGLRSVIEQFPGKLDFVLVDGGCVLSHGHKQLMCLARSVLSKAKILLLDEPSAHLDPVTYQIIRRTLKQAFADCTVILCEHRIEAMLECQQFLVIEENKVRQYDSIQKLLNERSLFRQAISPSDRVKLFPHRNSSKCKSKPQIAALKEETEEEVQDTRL

Which “TECC24 @ 10 uM over DMSO” value does the source give for `O=C(O)CCc1cccc([C@H]2NCCc3nc(-c4cc(Oc5c(F)cc6[nH]ccc6c5F)ccc4F)[nH]c32)c1F` (single isomer, unassigned) [Example 3] here?
The value was “A (AUC @10 uM >=12)”.

What follows are compounds tested on NBD1 (assay: Aggregation analysis using differential static light scattering (DSLS), thermal stability of NBD1). Settings: 100 μM compound; ΔTagg = Tagg minus average Tagg of DMSO control wells; NBD1 0.2 mg/ml.
Type: binding, Human
Procedure: Example 23. Aggregation Analysis Using Differential Static Light Scattering (DSLS)
Purified recombinant NBD1 was produced using previously described methods (A. Schmidt, J. L. Mendoza, P. J. Thomas (2011) Biochemical and Biophysical Approaches to Probe CFTR Structure (365-376) M. D. Amaral, K. Kunzelmann (eds.), Cystic Fibrosis, Methods in Molecular Biology 741, Springer Science+Business Media). The effect of test compounds on thermal stability of NBD1 was evaluated by differential static light scattering (DSLS) using the Harbinger Stargazer-384 instrument (Epiphyte Three, Toronto, Canada). Test compounds were dissolved and diluted to desired concentrations in 100% DMSO. The compounds or DMSO controls (100 nL) were stamped into wells of a […] low volume optical plate (Corning Inc., Corning, NY) using the Echo 555 acoustic liquid handler (Labcyte Inc., San Jose, CA).
NBD1 protein was diluted to 0.2 mg/ml in S200 buffer (50 mM Tris-HCl, 150 mM NaCl, 5 mM MgCl2, 2 mM ATP, 2 mM DTT, pH7.6) containing 1% glycerol. 10 μL of protein solution was aliquoted into the 384-well plate harboring the test compounds and 10 μL mineral oil was overlayed onto the protein solution, using the epMotion robotic liquid handler (Eppendorf North America, Hauppauge, NY). After placing into the Stargazer instrument, the plate was heated at 1° C. per minute to 70° C. Images were captured from 25° C. to 70° C. every 0.5° C. At the end of the experiment run, instrument software integrated image files and analyzed data automatically. A linear regression curve was generated for each well, representing the increase in light scattering over time. A temperature of aggregation (Tagg) was calculated based on the inflection point of the curve. To better compare data across experiments the average Tagg for DMSO control wells was calculated and subtracted from values for wells containing compounds to obtain a “ΔTagg” value. These ΔTagg values reflect stabilizing efficacy of the compounds.

With `O=C(O)CCc1cccc([C@H]2NCCc3nc(-c4cc(Oc5c(F)cc6[nH]ccc6c5F)ccc4F)[nH]c32)c1F` (single isomer, unassigned) [Example 3] as the compound, how does the “DSLS NBD1/3D Human Stability delta-T (° C.) @ 100 (μM)” value (“DSLS NBD1/3D Human Stability delta-T” below) read?
Its value is “A (T ≥ 8° C.)”.

`O=C(O)CCc1cccc([C@@H]2NCCc3nc(-c4cc(Oc5c(F)cc6[nH]ccc6c5F)ccc4F)[nH]c32)c1F` (single isomer, unassigned) [Example 4] was tested. Which “DSLS NBD1/3D Human Stability delta-T” value did it give?
The value was “C (≤4° C.)”.

How did the “DSLS NBD1/3D Human Stability delta-T” value turn out when `CN1CCc2nc(-c3cc(Oc4c(F)cc5[nH]ccc5c4F)ccc3F)[nH]c2[C@H]1c1cccc(CCC(=O)O)c1F` (single isomer, unassigned) [Example 5] was run?
Its value is “B (4-8° C.)”.

Which “DSLS NBD1/3D Human Stability delta-T” value does the source give for `CN1CCc2nc(-c3cc(Oc4c(F)cc5[nH]ccc5c4F)ccc3F)[nH]c2[C@@H]1c1cccc(CCC(=O)O)c1F` (single isomer, unassigned) [Example 6] here?
The value was “A (T ≥ 8° C.)”.

Which “DSLS NBD1/3D Human Stability delta-T” value does the source give for `O=C(O)Cc1cccc(C2OCCc3[nH]c(-c4cc(Oc5c(F)cc6[nH]ccc6c5F)ccc4F)nc32)c1` (stereo not drawn) [Example 2, 2-(3-(2-(5-((4,6-difluoro-1H-indol-5-yl)oxy)-2-fluorophenyl)-1,4,6,7-tetrahydropyrano[3,4-d]imidazol-4-yl)phenyl)acetic acid] here?
Its value is “B (4-8° C.)”.

For `CC(Cc1cccc(C2c3nc(-c4cc(Oc5c(F)cc6[nH]ccc6c5S(C)(=O)=O)ccc4F)[nH]c3CCN2C)c1F)C(=O)O` (stereo not drawn) [Example 7, 3-[2-fluoro-3-[2-[2-fluoro-5-[(6-fluoro-4-methylsulfonyl-1H-indol-5-yl)oxy]phenyl]-5-methyl-1,4,6,7-tetrahydroimidazo[4,5-c]pyridin-4-yl]phenyl]-2-methyl-propanoic acid], which “DSLS NBD1/3D Human Stability delta-T” value is on record?
The value was “A (T ≥ 8° C.)”.

With `Cc1c(-c2cc(Oc3c(F)cc4[nH]ccc4c3F)ccc2F)nc2n1CCNC2c1cccc(CC(O)CO)c1F` (stereo not drawn) [Example 9, 3-[3-[2-[5-[(4,6-difluoro-1H-indol-5-yl)oxy]-2-fluoro-phenyl]-3-methyl-5,6,7,8-tetrahydroimidazo[1,2-a]pyrazin-8-yl]-2-fluoro-phenyl]propane-1,2-diol] as the compound, how does the “DSLS NBD1/3D Human Stability delta-T” value read?
The value was “B (4-8° C.)”.

`CCOC(=O)C(C)Cc1cccc(C2NCCn3c2nc(-c2cc(Oc4c(F)cc5[nH]ccc5c4F)ccc2F)c3C)c1F` (stereo not drawn) [Example 10, ethyl 3-[3-[2-[5-[(4,6-difluoro-1H-indol-5-yl)oxy]-2-fluoro-phenyl]-3-methyl-5,6,7,8-tetrahydroimidazo[1,2-a]pyrazin-8-yl]-2-fluoro-phenyl]-2-methyl-propanoate] was tested. Which “DSLS NBD1/3D Human Stability delta-T” value did it give?
Its value is “C (≤4° C.)”.

For `CCOC(=O)CCc1cccc(C2c3nc(-c4cc(Oc5c(F)cc6[nH]ccc6c5S(C)(=O)=O)ccc4F)[nH]c3CCN2C)c1F` (stereo not drawn) [Example 13, ethyl 3-[2-fluoro-3-[2-[2-fluoro-5-[(6-fluoro-4-methylsulfonyl-1H-indol-5-yl)oxy]phenyl]-5-methyl-1,4,6,7-tetrahydroimidazo[4,5-c]pyridin-4-yl]phenyl]propanoate], which “DSLS NBD1/3D Human Stability delta-T” value is on record?
The value was “B (4-8° C.)”.

Which “DSLS NBD1/3D Human Stability delta-T” value does the source give for `CN1CCc2[nH]c(-c3cc(Oc4c(F)cc5[nH]ccc5c4S(C)(=O)=O)ccc3F)nc2C1c1cccc(CCC(=O)O)c1F` (stereo not drawn) [Example 14, 3-[2-fluoro-3-[2-[2-fluoro-5-[(6-fluoro-4-methylsulfonyl-1H-indol-5-yl)oxy]phenyl]-5-methyl-1,4,6,7-tetrahydroimidazo[4,5-c]pyridin-4-yl]phenyl]propanoic acid] here?
The value was “A (T ≥ 8° C.)”.

With `CCOC(=O)CCc1cccc(C2c3nc(-c4cc(Oc5c(F)cc6[nH]ccc6c5S(C)(=O)=O)ccc4F)[nH]c3CCN2CC(F)F)c1F` (stereo not drawn) [Example 15, ethyl 3-[3-[5-(2,2-difluoroethyl)-2-[2-fluoro-5-[(6-fluoro-4-methylsulfonyl-1H-indol-5-yl)oxy]phenyl]-1,4,6,7-tetrahydroimidazo[4,5-c]pyridin-4-yl]-2-fluoro-phenyl]propanoate] as the compound, how does the “DSLS NBD1/3D Human Stability delta-T” value read?
The value was “C (≤4° C.)”.

How did the “DSLS NBD1/3D Human Stability delta-T” value turn out when `CS(=O)(=O)c1c(Oc2ccc(F)c(-c3nc4c([nH]3)CCN(CC(F)F)C4c3cccc(CCC(=O)O)c3F)c2)c(F)cc2[nH]ccc12` (stereo not drawn) [Example 16, 3-[3-[5-(2,2-difluoroethyl)-2-[2-fluoro-5-[(6-fluoro-4-methylsulfonyl-1H-indol-5-yl)oxy]phenyl]-1,4,6,7-tetrahydroimidazo[4,5-c]pyridin-4-yl]-2-fluoro-phenyl]propanoic acid] was run?
The value was “A (T ≥ 8° C.)”.

How did the “DSLS NBD1/3D Human Stability delta-T” value turn out when `CNC(=O)CCc1cccc(C2c3nc(-c4cc(Oc5c(F)cc6[nH]ccc6c5S(C)(=O)=O)ccc4F)[nH]c3CCN2CC(F)F)c1F` (stereo not drawn) [Example 17, 3-[3-[5-(2,2-difluoroethyl)-2-[2-fluoro-5-[(6-fluoro-4-methylsulfonyl-1H-indol-5-yl)oxy]phenyl]-1,4,6,7-tetrahydroimidazo[4,5-c]pyridin-4-yl]-2-fluoro-phenyl]-N-methyl-propanamide] was run?
The value was “B (4-8° C.)”.

For `CCOC(=O)CCc1ccc(C2c3nc(-c4cc(Oc5c(F)cc6[nH]ccc6c5S(C)(=O)=O)ccc4F)[nH]c3CCN2C)s1` (stereo not drawn) [Example 18, ethyl 3-[5-[2-[2-fluoro-5-[(6-fluoro-4-methylsulfonyl-1H-indol-5-yl)oxy]phenyl]-5-methyl-1,4,6,7-tetrahydroimidazo[4,5-c]pyridin-4-yl]-2-thienyl]propanoate], which “DSLS NBD1/3D Human Stability delta-T” value is on record?
The value was “B (4-8° C.)”.

`CN1CCc2[nH]c(-c3cc(Oc4c(F)cc5[nH]ccc5c4S(C)(=O)=O)ccc3F)nc2C1c1ccc(CCC(=O)O)s1` (stereo not drawn) [Example 19, 3-[5-[2-[2-fluoro-5-[(6-fluoro-4-methylsulfonyl-1H-indol-5-yl)oxy]phenyl]-5-methyl-1,4,6,7-tetrahydroimidazo[4,5-c]pyridin-4-yl]-2-thienyl]propanoic acid] was tested. Which “DSLS NBD1/3D Human Stability delta-T” value did it give?
The value was “A (T ≥ 8° C.)”.

`CN1CCc2[nH]c(-c3cc(Oc4c(F)cc5[nH]ccc5c4F)ccc3F)nc2C1c1cccc(CC(O)CO)c1F` (stereo not drawn) [Example 20, 3-[3-[2-[5-[(4,6-difluoro-1H-indol-5-yl)oxy]-2-fluoro-phenyl]-5-methyl-1,4,6,7-tetrahydroimidazo[4,5-c]pyridin-4-yl]-2-fluoro-phenyl]propane-1,2-diol] was tested. Which “DSLS NBD1/3D Human Stability delta-T” value did it give?
Its value is “B (4-8° C.)”.

With `CN1CCc2[nH]c(-c3cc(Oc4c(F)cc5[nH]ccc5c4S(C)(=O)=O)ccc3F)nc2C1c1cccc(CC(O)CO)c1F` (stereo not drawn) [Example 21, 3-[2-fluoro-3-[2-[2-fluoro-5-[(6-fluoro-4-methylsulfonyl-1H-indol-5-yl)oxy]phenyl]-5-methyl-1,4,6,7-tetrahydroimidazo[4,5-c]pyridin-4-yl]phenyl]propane-1,2-diol] as the compound, how does the “DSLS NBD1/3D Human Stability delta-T” value read?
The value was “A (T ≥ 8° C.)”.
